The results in this text go back to US20260207615A1, “FLUOROPYRIDOPYRIMIDINE AND FLUOROQUINAZOLINE DERIVATIES AND METHODS OF USE THEREOF” (Frontier Medicines Corporation, priority 2022, published 2026).

A value given as a limit tells only on which side of the number the result lay.

T1 sequence (P01116 1-169 isoform P01116-2 G12C/C51S/C80L/C118S): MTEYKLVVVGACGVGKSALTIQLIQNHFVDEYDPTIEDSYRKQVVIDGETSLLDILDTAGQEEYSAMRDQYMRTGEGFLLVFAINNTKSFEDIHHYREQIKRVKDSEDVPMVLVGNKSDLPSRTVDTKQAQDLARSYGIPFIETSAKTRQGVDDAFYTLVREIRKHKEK

The experiment concerns the target T1, KRAS G12C and cRAF interaction (Homo sapiens, UniProt P01116, C118S/C51S/C80L/G12C).
T1 construct: truncated version comprising amino acids 1-169
Briefly: Inhibition of KRAS G12C and cRAF binding (AlphaScreen). The format is biochemical. The following applies: KRAS G12C (Cys-light, aa 1-169) preloaded with GMPPNP, cRaf RBD (aa 50-131), 2 hours incubation. As for the experimental part: The AlphaScreen technology was used to determine IC50s for compound inhibition of KRAS G12C (present as the Cys-light (C51S, C80L and C118S), truncated version comprising amino acids 1-169) and cRAF interaction. Compounds were diluted in 100% DMSO and each compound concentration was spotted at 200 nl/well onto low volume, white 384 well plates. The KRAS G12C contained a biotin-AviTag and the cRaf, as Ras-binding domain (amino acids 50-131, RBD), was GST-tagged. KRAS G12C was preloaded with the GTP analogue Guanosine 5′-[β,γ-imido]triphosphate (GMPPNP). The KRAS G12C was diluted in 25 mM Hepes, pH 7.4, 150 mM NaCl, 5 mM MgCl2, 0.01% TritonX-100 and 10 μM GMPPNP and added at 10 μl/well to compound-spotted plates resulting in a DMSO concentration of 2%. Plates were incubated for 2 hours. A mixture of RBD and the AlphaScreen streptavidin donor and glutathione acceptor beads diluted in 25 mM Hepes, pH 7.4, 150 mM NaCl, 5 mM MgCl2, 0.01% TritonX-100 and 2% DMSO was then added at 10 μl/well and incubated for 60-90 minutes before the samples were read for emission at 570 nm after excitation of the donor beads at 680 nm. All incubations were performed at room temperature. The final top compound concentration was 50 μM with 1:3 titrations for 10-point dose response curves. Final assay conditions were 0.5 nM KRAS G12C, 0.75 nM RBD and 5 μg/ml each of AlphaScreen donor and acceptor beads. IC50S were determined using nonlinear regression fit of [inhibitor] vs. response (4 parameters).
A counter assay was also set up to rule out inhibitors of the AlphaScreen technology itself. Compound plates were incubated for 2 hours as above with buffer only.
The AlphaScreen beads were added as above except biotin-AviTag-GST was substituted for the RBD. Samples were read and analyzed as above.
(In general: Bead proximity is the source of the signal in Alpha formats.)
One may read the IC50 as the point on the concentration scale where inhibition reaches its midpoint. `O=C(/C=C/CN1CC2CC(C1)O2)N1CCN(c2nc(OC[C@@]34CCCN3C[C@H](F)C4)nc3c(F)c(-c4cccc5cccc(Cl)c45)ncc23)CC12COC2` [Example 14, (E)-4-(6-oxa-3-azabicyclo[3.1.1]heptan-3-yl)-1-(8-(7-(8-chloronaphthalen-1-yl)-8-fluoro-2-(((2R,7aS)-2-fluorotetrahydro-1H-pyrrolizin-7a(5H)-yl)methoxy)pyrido[4,3-d]pyrimidin-4-yl)-2-oxa-5,8-diazaspiro[3.5]nonan-5-yl) but-2-en-1-one] showed an IC50 of 10 to 100 nM. `O=C(/C=C/CN1CC2CCC(C1)O2)N1CCN(c2nc(OC[C@@]34CCCN3C[C@H](F)C4)nc3c(F)c(-c4cccc5cccc(Cl)c45)ncc23)CC12COC2` [Example 15, (E)-4-(8-oxa-3-azabicyclo[3.2.1]octan-3-yl)-1-(8-(7-(8-chloronaphthalen-1-yl)-8-fluoro-2-(((2R,7aS)-2-fluorotetrahydro-1H-pyrrolizin-7a(5H)-yl)methoxy)pyrido[4,3-d]pyrimidin-4-yl)-2-oxa-5,8-diazaspiro[3.5]nonan-5-yl) but-2-en-1-one]: the IC50 was 10 to 100 nM. As for `O=C(C#CCN1CCOCC1)N1CCN(c2nc(OC[C@@]34CCCN3C[C@H](F)C4)nc3c(F)c(-c4cccc5cccc(Cl)c45)ncc23)CC12COC2` [Example 16, 1-(8-(7-(8-chloronaphthalen-1-yl)-8-fluoro-2-(((2R,7aS)-2-fluorotetrahydro-1H-pyrrolizin-7a(5H)-yl)methoxy)pyrido[4,3-d]pyrimidin-4-yl)-2-oxa-5,8-diazaspiro[3.5]nonan-5-yl)-4-morpholinobut-2-yn-1-one], the IC50 was 100 to 500 nM. In the case of `C=CC(=O)N1CCN(c2nc(OC[C@@]34CCCN3C[C@H](F)C4)nc3c(F)c(-c4cccc5cccc(Cl)c45)ncc23)CC12COC2` [Example 17, 1-(8-(7-(8-chloronaphthalen-1-yl)-8-fluoro-2-(((2R,7aS)-2-fluorotetrahydro-1H-pyrrolizin-7a(5H)-yl)methoxy)pyrido[4,3-d]pyrimidin-4-yl)-2-oxa-5,8-diazaspiro[3.5]nonan-5-yl) prop-2-en-1-one] it was 10 to 100 nM. For `O=C(/C=C/CN1CCOCC1)N1CCN(c2nc(OC[C@@]34CCCN3C[C@H](F)C4)nc3c(F)c(-c4cccc5ccc(F)c(F)c45)ncc23)CC12COC2` [Example 18, (E)-1-(8-(7-(7,8-difluoronaphthalen-1-yl)-8-fluoro-2-(((2R,7aS)-2-fluorotetrahydro-1H-pyrrolizin-7a(5H)-yl)methoxy)pyrido[4,3-d]pyrimidin-4-yl)-2-oxa-5,8-diazaspiro[3.5]nonan-5-yl)-4-morpholinobut-2-en-1-one], the IC50 was 10 to 100 nM. For the molecule `O=C(/C=C/CN1C[C@H]2C[C@@H]1CO2)N1CCN(c2nc(OC[C@@]34CCCN3C[C@H](F)C4)nc3c(F)c(-c4cccc5ccc(F)c(F)c45)ncc23)CC12COC2` [Example 19, (E)-4-((1R,4R)-2-oxa-5-azabicyclo[2.2.1]heptan-5-yl)-1-(8-(7-(7,8-difluoronaphthalen-1-yl)-8-fluoro-2-(((2R,7aS)-2-fluorotetrahydro-1H-pyrrolizin-7a(5H)-yl)methoxy)pyrido[4,3-d]pyrimidin-4-yl)-2-oxa-5,8-diazaspiro[3.5]nonan-5-yl) but-2-en-1-one], the IC50 was less than 10 nM. The value for `O=C(/C=C/CN1CC2CC(C1)O2)N1CCN(c2nc(OC[C@@]34CCCN3C[C@H](F)C4)nc3c(F)c(-c4cccc5ccc(F)c(F)c45)ncc23)CC12COC2` [Example 20, (E)-4-(6-oxa-3-azabicyclo[3.1.1]heptan-3-yl)-1-(8-(7-(7,8-difluoronaphthalen-1-yl)-8-fluoro-2-(((2R,7aS)-2-fluorotetrahydro-1H-pyrrolizin-7a(5H)-yl)methoxy)pyrido[4,3-d]pyrimidin-4-yl)-2-oxa-5,8-diazaspiro[3.5]nonan-5-yl) but-2-en-1-one] was less than 10 nM; that for `O=C(/C=C/CN1[C@@H]2CC[C@H]1COC2)N1CCN(c2nc(OC[C@@]34CCCN3C[C@H](F)C4)nc3c(F)c(-c4cccc5ccc(F)c(F)c45)ncc23)CC12COC2` [Example 21, (E)-4-((1R,5S)-3-oxa-8-azabicyclo[3.2.1]octan-8-yl)-1-(8-(7-(7,8-difluoronaphthalen-1-yl)-8-fluoro-2-(((2R,7aS)-2-fluorotetrahydro-1H-pyrrolizin-7a(5H)-yl)methoxy)pyrido[4,3-d]pyrimidin-4-yl)-2-oxa-5,8-diazaspiro[3.5]nonan-5-yl) but-2-en-1-one] was less than 10 nM. For the molecule `O=C(/C=C/CN1CC2CCC(C1)O2)N1CCN(c2nc(OC[C@@]34CCCN3C[C@H](F)C4)nc3c(F)c(-c4cccc5ccc(F)c(F)c45)ncc23)CC12COC2` [Example 22, (E)-4-(8-oxa-3-azabicyclo[3.2.1]octan-3-yl)-1-(8-(7-(7,8-difluoronaphthalen-1-yl)-8-fluoro-2-(((2R,7aS)-2-fluorotetrahydro-1H-pyrrolizin-7a(5H)-yl)methoxy)pyrido[4,3-d]pyrimidin-4-yl)-2-oxa-5,8-diazaspiro[3.5]nonan-5-yl) but-2-en-1-one], the IC50 is less than 10 nM.

For `O=C(/C=C/CN1[C@@H]2CC[C@H]1COC2)N1CCN(c2nc(OC[C@@]34CCCN3C[C@H](F)C4)nc3c(F)c(-c4cccc5ccc(F)c(Cl)c45)ncc23)CC12COC2` [Example 23, (E)-4-((1R,5S)-3-oxa-8-azabicyclo[3.2.1]octan-8-yl)-1-(8-(7-(8-chloro-7-fluoronaphthalen-1-yl)-8-fluoro-2-(((2R,7aS)-2-fluorotetrahydro-1H-pyrrolizin-7a(5H)-yl)methoxy)pyrido[4,3-d]pyrimidin-4-yl)-2-oxa-5,8-diazaspiro[3.5]nonan-5-yl) but-2-en-1-one], the IC50 is less than 10 nM. `O=C(/C=C/CN1[C@@H]2CC[C@H]1COC2)N1CCN(c2nc(OC[C@@]34CCCN3C[C@H](F)C4)nc3c(F)c(-c4cccc(Cl)c4C4CC4)ncc23)CC12COC2` [Example 24, (E)-4-((1R,5S)-3-oxa-8-azabicyclo[3.2.1]octan-8-yl)-1-(8-(7-(3-chloro-2-cyclopropylphenyl)-8-fluoro-2-(((2R,7aS)-2-fluorotetrahydro-1H-pyrrolizin-7a(5H)-yl)methoxy)pyrido[4,3-d]pyrimidin-4-yl)-2-oxa-5,8-diazaspiro[3.5]nonan-5-yl) but-2-en-1-one] showed an IC50 of less than 10 nM.

The molecule `CN(C)C/C=C/C(=O)N1CCN(c2nc(OC[C@@]34CCCN3C[C@H](F)C4)nc3c(F)c(-c4cccc5cccc(Cl)c45)ncc23)CC12COC2` [Example 25, (E)-1-(8-(7-(8-chloronaphthalen-1-yl)-8-fluoro-2-(((2R,7aS)-2-fluorotetrahydro-1H-pyrrolizin-7a(5H)-yl)methoxy)pyrido[4,3-d]pyrimidin-4-yl)-2-oxa-5,8-diazaspiro[3.5]nonan-5-yl)-4-(dimethylamino)but-2-en-1-one] showed an IC50 of 10 to 100 nM. The value for `O=C(/C=C/CN1[C@@H]2CC[C@H]1COC2)N1CCN(c2nc(OC[C@@]34CCCN3C[C@H](F)C4)nc3c(F)c(-c4ccccc4C(F)F)ncc23)CC12COC2` [Example 26, (E)-4-((1R,5S)-3-oxa-8-azabicyclo[3.2.1]octan-8-yl)-1-(8-(7-(2-(difluoromethyl)phenyl)-8-fluoro-2-(((2R,7aS)-2-fluorotetrahydro-1H-pyrrolizin-7a(5H)-yl)methoxy)pyrido[4,3-d]pyrimidin-4-yl)-2-oxa-5,8-diazaspiro[3.5]nonan-5-yl) but-2-en-1-one] was 100 to 500 nM; that for `Cc1cc(/C=C/C(=O)N2CCN(c3nc(OC[C@@]45CCCN4C[C@H](F)C5)nc4c(F)c(-c5cccc6ccc(F)c(Cl)c56)ncc34)CC23COC3)nc(C)n1` [Example 27, (E)-1-(8-(7-(8-chloro-7-fluoronaphthalen-1-yl)-8-fluoro-2-(((2R,7aS)-2-fluorotetrahydro-1H-pyrrolizin-7a(5H)-yl)methoxy)pyrido[4,3-d]pyrimidin-4-yl)-2-oxa-5,8-diazaspiro[3.5]nonan-5-yl)-3-(2,6-dimethylpyrimidin-4-yl) prop-2-en-1-one] was 10 to 100 nM.

`Cc1cc(/C=C/C(=O)N2CCN(c3nc(OC[C@@]45CCCN4C[C@H](F)C5)nc4c(F)c(-c5cccc(Cl)c5C5CC5)ncc34)CC23COC3)nc(C)n1` [Example 28, (E)-1-(8-(7-(3-chloro-2-cyclopropylphenyl)-8-fluoro-2-(((2R,7aS)-2-fluorotetrahydro-1H-pyrrolizin-7a(5H)-yl)methoxy)pyrido[4,3-d]pyrimidin-4-yl)-2-oxa-5,8-diazaspiro[3.5]nonan-5-yl)-3-(2,6-dimethylpyrimidin-4-yl) prop-2-en-1-one] displayed an IC50 not below 500 nM.
